For 83 compounds, IC50 and IC50APN results are on record in patent publication US20070037752A1, “Novel alanyl-amino peptidase inhibitors for functionally influencing different cells and treating immunological, inflammatory, neuronal, and other diseases” (priority 2003, published 2007).

pIC50: −log10 of the molar value.

The target of the first assay is alanyl aminopeptidases (APN) (Homo sapiens, UniProt P15144). Nature of the assay: Inhibition of alanyl aminopeptidase enzymatic activity, fluorogenic substrate (Ala)2-rhodamine 110. Type of assay: biochemical. Particulars: Table 1, unstarred values; read-out: IC50APN. Here is the method: The inhibition characteristics measured are referred to as IC-50 values or ID50 values (the latter marked with “*”) for said enzyme. The enzymatic activity was determined by means of the fluorogenic substrate/product (Ala)2-rhodamine 110.
Chain of alanyl aminopeptidases (APN) (P15144 whole entry, species assumed): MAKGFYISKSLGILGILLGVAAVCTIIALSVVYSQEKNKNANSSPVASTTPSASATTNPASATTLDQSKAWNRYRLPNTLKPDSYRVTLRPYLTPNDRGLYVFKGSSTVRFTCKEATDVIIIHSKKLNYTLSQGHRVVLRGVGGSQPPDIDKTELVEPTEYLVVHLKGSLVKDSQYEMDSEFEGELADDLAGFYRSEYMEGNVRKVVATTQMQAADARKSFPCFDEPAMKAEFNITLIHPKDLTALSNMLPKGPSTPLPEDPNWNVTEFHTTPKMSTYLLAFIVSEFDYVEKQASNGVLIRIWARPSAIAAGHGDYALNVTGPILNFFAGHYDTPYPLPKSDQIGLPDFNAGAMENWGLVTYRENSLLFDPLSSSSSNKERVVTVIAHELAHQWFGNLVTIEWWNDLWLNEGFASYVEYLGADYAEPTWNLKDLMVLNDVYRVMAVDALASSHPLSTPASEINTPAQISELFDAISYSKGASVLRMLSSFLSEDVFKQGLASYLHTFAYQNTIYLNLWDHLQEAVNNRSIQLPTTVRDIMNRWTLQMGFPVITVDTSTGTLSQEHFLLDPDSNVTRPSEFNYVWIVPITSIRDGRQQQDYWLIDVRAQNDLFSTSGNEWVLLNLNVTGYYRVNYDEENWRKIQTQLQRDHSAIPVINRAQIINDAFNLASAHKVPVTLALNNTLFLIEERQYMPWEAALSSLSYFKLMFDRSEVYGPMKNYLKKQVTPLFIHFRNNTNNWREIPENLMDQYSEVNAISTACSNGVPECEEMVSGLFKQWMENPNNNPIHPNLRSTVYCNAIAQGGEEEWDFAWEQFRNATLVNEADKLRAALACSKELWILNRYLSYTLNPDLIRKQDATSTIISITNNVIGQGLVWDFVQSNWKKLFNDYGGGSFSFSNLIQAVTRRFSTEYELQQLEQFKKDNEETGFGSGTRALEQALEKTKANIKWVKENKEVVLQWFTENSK
With `COc1ccc(C(OCCC(=O)NO)c2ccccc2)cc1` (centres unmarked) [A1.014], the pIC50 is 4.48.
With `CCOc1ccc(CC(=O)NO)cc1` [A1.006], the pIC50 is 5.12.
For `O=C(CCOC(c1ccc(F)cc1)c1ccc(F)cc1)NO` [A1.012], the pIC50 is 4.66.

Still in this assay, the particulars now being: Table 2; read-out: IC50APN.
Take `COCc1nnn(-c2nonc2N)c1C(=O)N/N=C/c1ccco1` [A2.004]: the pIC50 is 4.90.

The assay is the same for the next values; noted with them: Table 3, starred values = ID50; read-out: ID50 APN (values marked with *).
For `Cc1ccc(Cn2c(SCCC(=O)O)nc3c2c(=O)[nH]c(=O)n3C)cc1` [A3.267], the pIC50 was 4.27.
On the same count and under the same terms, then `COc1cc(C(=O)NCC(=O)N/N=C\c2ccc(C)o2)cc(OC)c1OC` [A3.335], with 3.79.
Take `COc1ccc(C2C(C(=O)c3ccccc3)C(c3ccccc3)C(C(=O)NCc3ccc(F)cc3)N2C(=O)NC2CCCCC2)cc1` (centres unmarked) [A3.342]: the pIC50 was 3.64.
Regarding `O=C(N/N=C/c1ccco1)c1ccc([N+](=O)[O-])cc1` [A3.347], the pIC50 was 3.52.
On to `COC(=O)c1cc(C(=O)NC2CCSC2=O)cc([N+](=O)[O-])c1` (centres unmarked) [A3.341], for which the pIC50 was 3.62.

The same assay, now with this note: Table 3, unstarred values; read-out: IC50APN.
Turning to `O=C(N/C(=C\c1ccco1)C(=O)N1CCCCC1)c1ccco1` [A3.040], the pIC50 was 4.97.
For the compound `CC1=C(C#N)C(=O)N(CCO)C(=O)/C1=C\c1ccc(-c2ccc(C)c(Cl)c2)o1` [A3.322], the pIC50 is 3.90.
Consider `COc1ccccc1NC(=O)/C=C\c1ccco1` [A3.276], for which the pIC50 was 4.25.
In the case of `CC(C)COc1ccc(C(=O)N/C(=C\c2ccco2)C(=O)N2CCOCC2)cc1` [A3.057], the pIC50 was 4.88.
As for `O=C(N/N=C/c1ccco1)c1cccc(NC(=O)c2ccccc2)c1` [A3.182], the pIC50 is 4.53.
Consider `COc1cc(Br)ccc1OCC(=O)N/N=C/C=C/c1ccco1` [A3.043], for which the pIC50 is 4.96.
Still for that read-out and setting: under `COc1ccc(C2(CNC(=O)/C=C/c3ccco3)CCCC2)cc1OC` [A3.162] stands 4.58.
Consider `CC(C)Oc1ccc(Br)cc1C(=O)N/N=C/c1ccco1` [A3.248], for which the pIC50 is 4.33.
On the same count and under the same terms, under `CCCCCC(=O)N/N=C/c1ccco1` [A3.164] stands 4.57; under `CC1CCN(C(=O)/C(=C\c2ccco2)NC(=O)c2ccccc2)CC1` [A3.244], 4.35; under `CCCN1C(=O)C(C#N)=C(C)/C(=C\c2ccc(-c3cccc(Cl)c3C)o2)C1=O` [A3.112], 4.68.
As for `Cc1ccc(/C=N/NC(=O)c2ccc(NC(=O)c3ccccc3C)cc2)o1` [A3.136], the pIC50 was 4.64.
In the case of `O=C(N/N=C/c1ccco1)c1ccccc1[N+](=O)[O-]` [A3.315], the pIC50 was 4.04.
Take `CCCOc1[nH]c(/N=C/c2ccccc2)c(C#N)c1C#N` [A3.105]: the pIC50 was 4.70.
As to `O=C(N/N=C/c1ccco1)c1cc(-c2ccc(F)cc2)n[nH]1` [A3.066], the pIC50 was 4.84.
For the compound `O=C(N/N=C/c1ccco1)c1ccc(O)cc1` [A3.082], the pIC50 was 4.77.
Take `COC(=O)c1ccccc1-c1ccc(/C=C2\C(=O)N(C)C(=O)C(C#N)=C2C)o1` [A3.172]: the pIC50 was 4.55.
Same read-out and setting: then `O=C1C(=Cc2ccc([N+](=O)[O-])o2)C(=O)c2ccccc21` [A3.295], with 4.17; and `O=C(O)c1ccc(-n2c(/C=C/c3ccco3)nc3ccccc3c2=O)cc1` [A3.116], with 4.67; and `CCOc1ccc(Br)cc1C(=O)N/N=C/c1ccco1` [A3.155], with 4.59.
On to `O=C(N/C(=C\c1ccco1)C(=O)N1CCOCC1)c1ccccc1Cl` [A3.154], for which the pIC50 was 4.59.
Turning to `CC1=C(C#N)C(O)=NC(=O)/C1=C/c1ccc(-c2ccc(Cl)cc2Cl)o1` [A3.197], the pIC50 is 4.49.
With `C=CC[N+]1=C(/C=C2\SC(c3ccccc3)=C(c3ccccc3)N2CC)S/C(=C/C=C2\SC(c3ccccc3)=C(c3ccccc3)N2CC)C1=O` [A3.045], the pIC50 is 4.95.
For `O=C(N/N=C/c1cccc([N+](=O)[O-])c1)c1ccco1` [A3.247], the pIC50 is 4.34.
For `CCOc1cc(/C=N/NC(=O)CNC(=O)c2cccc(Cl)c2)ccc1OC(=O)c1cccs1` [A3.051], the pIC50 was 4.91.
Regarding `O=C(Nc1ccc(F)cc1)c1ccc([NH+]([O-])O)o1` (centres unmarked) [A3.226], the pIC50 was 4.43.
The same measure, in the same setting: under `O=[N+]([O-])c1ncn(CCBr)n1` [A3.235] stands 4.39.
`CCCOc1ccccc1-c1cc(C(=O)N/N=C/c2ccco2)[nH]n1` [A3.100]: the pIC50 was 4.71.

The same assay, now with this note: Table 4, starred values = ID50; read-out: ID50 APN (values marked with *).
Regarding `O=C(CNC(=O)c1ccccc1)N/N=C/c1ccco1` [A4.140], the pIC50 is 4.31.

The same assay, now with this note: Table 4, unstarred values; read-out: IC50APN.
As for `COC(=O)N/N=C(C)\C=C\c1ccco1` [A4.025], the pIC50 was 4.87.
On the same count and under the same terms, under `O=C(CNS(=O)(=O)c1ccc2c(c1)OCCO2)N/N=C/c1ccco1` [A4.148] stands 4.25.
Regarding `CC(C)C/C=N/NC(=O)c1ccc([N+](=O)[O-])cc1Cl` [A4.035], the pIC50 was 4.81.
Regarding `O=C(N/N=C/c1ccco1)c1ccc(O)cc1` [A4.042], the pIC50 is 4.77.
On to `COc1ccc(/C(C)=N/NC(=O)CNC(=O)/C=C\c2ccco2)cc1OC` [A4.053], for which the pIC50 was 4.70.
On the same count and under the same terms, under `Cc1ccc(/C=N/NC(=O)COc2cccc(Cl)c2)o1` [A4.153] stands 4.20.
Same read-out and setting: under `O=C(CNC(=O)c1ccccc1Br)N/N=C/c1ccoc1` [A4.101] stands 4.50; under `CC1=NNC(=O)C1CCC(=O)N/N=C\C=C\c1ccco1` (centres unmarked) [A4.068], 4.64.
Consider `COc1cc(Br)ccc1OCC(=O)N/N=C/c1cc(O)c(O)c(Br)c1Br` [A4.003], for which the pIC50 was 5.30.
As to `Cc1ccc(/C=N/NC2=NC(=O)CS2)o1` [A4.082], the pIC50 was 4.58.
On to `CCCCCCCC(=O)N/N=C/c1ccco1` [A4.143], for which the pIC50 is 4.30.
The same measure, in the same setting: under `Cc1cc(I)ccc1NC(=O)CCC(=O)N/N=C/c1ccco1` [A4.048] stands 5.02; under `O=C(CCC(=O)Nc1cccc(Cl)c1)N/N=C/c1ccco1` [A4.106], 4.47.
In the case of `O=C(N/N=C/c1ccco1)c1cccc(Br)c1` [A4.152], the pIC50 was 4.20.
For the compound `COCc1c(C(=O)N/N=C/c2ccc(C)o2)nnn1-c1nonc1N` [A4.022], the pIC50 is 4.90.
`O=C(N/N=C\c1ccco1)c1cnccn1` [A4.097]: the pIC50 is 4.52.

Staying with this assay, now noted: Table 6; read-out: IC50APN.
As for `NNC(=O)c1ccc(NS(=O)(=O)c2cccs2)cc1` [A6.004], the pIC50 is 4.93.

The assay is the same for the next values; noted with them: Table 7; read-out: IC50APN.
With `CN/C=C1\C=C(c2ccccc2)OC1=S` [A7.001], the pIC50 is 5.22.
On the same count and under the same terms, under `Cc1ccc(S(=O)(=O)CNC(=S)c2ccc(Cl)c(Cl)c2)cc1` [A7.010] stands 4.74.
Take `Cc1ccc(S(=O)(=O)CNC(=S)c2ccc3ccccc3c2)cc1` [A7.004]: the pIC50 is 4.93.

Staying with this assay, now noted: Table 8, starred values = ID50; read-out: ID50 APN (values marked with *).
Turning to `O=C(O)CC1S/C(=N/N=C/c2ccco2)NC1=O` (centres unmarked) [A8.031], the pIC50 is 4.32.
With `Cc1cccc[n+]1OC(=O)N1CCCCC1` [A8.038], the pIC50 is 4.01.

The same assay, now with this note: Table 8, unstarred values; read-out: IC50APN.
As for `O=C1C(Cc2ccc3[nH]ccc3c2)NC(=S)N1c1ccccc1` (centres unmarked) [A8.029], the pIC50 is 4.43.

Staying with this assay, now noted: Table 9, starred values = ID50; read-out: ID50 APN (values marked with *).
Consider `Cc1cccc[n+]1OC(=O)N1CCCCC1` [A9.118], for which the pIC50 was 4.01.
As to `O=C1c2ccccc2-c2c1[n+]([O-])c1c([n+]2[O-])CCCC1` [A9.003], the pIC50 is 5.70.
As to `Cc1ccc(/C=C(\NC(=O)c2ccccc2)C(=O)NCCN2CCOCC2)o1` [A9.103], the pIC50 was 4.26.
As for `Cc1ccc(Cn2c(SCCC(=O)O)nc3c2c(=O)[nH]c(=O)n3C)cc1` [A9.100], the pIC50 is 4.27.

Still in this assay, the particulars now being: Table 9, unstarred values.
In the case of `COC(=O)C1=C(N)N2C(=O)CSC2=C(C(=O)OC)C1` [A9.001], the IC50APN result is “‘very high ac- tive’, beyond measure”.

Still in this assay, the particulars now being: Table 9, unstarred values; read-out: IC50APN.
For the compound `CCOc1cccc(/C=N/NC(=O)C2=C(C)Nc3ccccc3S2)c1O` [A9.086], the pIC50 is 4.48.
On to `Cn1nc(-c2cccs2)nc2c(=O)n(C)c(=O)nc1-2` [A9.059], for which the pIC50 was 4.60.
For `CCCN1C(=O)C(C#N)=C(C)/C(=C\c2ccc(-c3cccc(Cl)c3C)o2)C1=O` [A9.049], the pIC50 is 4.68.
As to `c1coc(-c2nc3cc4ccccc4cc3nc2-c2ccco2)c1` [A9.016], the pIC50 was 5.05.
On the same count and under the same terms, then `N/C(=N/OS(=O)(=O)c1ccc(C(F)(F)F)cc1)C1CSCCS1` (centres unmarked) [A9.031], with 4.87.
As for `CCCOC(=O)c1cc(-c2ccc(/C=C3\C(=O)NC(=O)C(C#N)=C3C)o2)ccc1Cl` [A9.091], the pIC50 is 4.43.

The assay is the same for the next values; noted with them: Table 12; read-out: IC50APN.
With `Brc1cc2c(cc1Br)OCCOCCOCCOCCOCCO2` [A12.002], the pIC50 was 6.15.
Turning to `Cc1ccc(C(=O)N/C(=C\c2ccco2)C(=O)N2CC3CC(C2)c2cccc(=O)n2C3)cc1` (centres unmarked) [A12.019], the pIC50 is 4.96.
Still for that read-out and setting: then `CSCCC(NC(=O)c1ccc(C(F)(F)F)cc1)C(=O)NO` (centres unmarked) [A12.061], with 4.29; and `CC1=C(C#N)C(=O)N(CC(C)O)C(=O)/C1=C/c1ccc(-c2cccc(Cl)c2C)o1` (centres unmarked) [A12.048], with 4.54.
Take `CSCCC1NC(=S)N(Cc2ccccc2)C1=O` (centres unmarked) [A12.027]: the pIC50 is 4.85.
The same measure, in the same setting: then `O=C(CCCCCN1C(=O)c2cccc3cccc(c23)C1=O)NO` [A12.028], with 4.85; and `CCOC(=O)C(NC(=O)c1ccccc1)(N1CCC(Cc2ccccc2)CC1)C(F)(F)F` (centres unmarked) [A12.049], with 4.52.
With `CCCOC(=O)c1cc(-c2ccc(/C=C3\C(=O)N(CCCO)C(=O)C(C#N)=C3C)o2)ccc1Cl` [A12.022], the pIC50 was 4.62.

Staying with this assay, now noted: Table 13; read-out: IC50APN.
For `CC(=O)c1cccc(-c2ccc(/C=C3/C(=O)N(CCCO)C(=O)C(C#N)=C3C)o2)c1` [A13.009], the pIC50 was 4.74.
Still for that read-out and setting: then `CC1=C(C#N)C(=O)N(CCCO)C(=O)/C1=C\c1ccc(-c2ccc(Br)cc2)o1` [A13.007], with 4.80; and `CC1=C(C#N)C(=O)N(CC(C)O)C(=O)/C1=C/c1ccc(-c2cccc(Cl)c2C)o1` (centres unmarked) [A13.014], with 4.54.
